For one assay, the system named is EW-22. Kind of assay: cells. The class given is functional, cell-based. The following applies: Homo sapiens.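 Further: growth inhibition of the EW-22 cell line, measured with a cell viability readout.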
For the next assay, the system named is NBsusSR. Kind of assay: cells. The format is functional, cell-based. The following applies: Homo sapiens.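 Further: growth inhibition of the human cell line, read out with a cell viability assay.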
In the next assay the test system is NCI-H1573. Kind of assay: cells. The class given is functional, cell-based. Conditions: Homo sapiens.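 Further: growth inhibition of NCI-H1573 cells, read out with a cell viability assay.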
The next assay relates to NCI-H1666. Kind of assay: cells. The class given is functional, cell-based. Conditions: Homo sapiens.
In the next assay the test system is NCI-H630. The assay is described as follows: cells. The class given is functional, cell-based, Homo sapiens. Conditions: Homo sapiens, NCI-H630.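 Further: growth inhibition of NCI-H630 cells, read out with a cell viability assay.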
In the next assay the test system is OC-314. Kind of assay: cells. The class given is functional, cell-based. The following applies: Homo sapiens.
A further assay deals with RH-18. Kind of assay: cells. The format is functional, cell-based. The following applies: Homo sapiens, Rh18.
A further assay has as its system SNU-423. Kind of assay: cells. The format is functional, cell-based, Homo sapiens. Conditions: Homo sapiens, SNU-423.
The subject of another assay is A549. Kind of assay: cells. Conditions: Homo sapiens. The class given is functional, cell-based.
A further assay relates to BT-549. Kind of assay: cells. The format is functional, cell-based. The following applies: Homo sapiens.
A further assay relates to TI-73. Kind of assay: cells. The format is functional, cell-based. Conditions: Homo sapiens.
In the next assay the test system is ZR-75-30. Kind of assay: cells. The format is functional, cell-based. Conditions: Homo sapiens.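 Further: growth inhibition of ZR-75-30 cells, measured with a cell viability readout.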
The test system of the next assay is CHP-134. Kind of assay: SANGER: Inhibition of human CHP-134 cell growth in a cell viability assay. The format is functional, cell-based.

As usually defined, the IC50 is the concentration needed to halve the response being measured. Lower therefore signals greater potency.

Description for A549: SANGER: Inhibition of human A549 cell growth in a cell viability assay.
Description for BT-549: SANGER: Inhibition of human BT-549 cell growth in a cell viability assay.
Description for EW-22: SANGER: Inhibition of human EW-22 cell growth in a cell viability assay.
Description for NBsusSR: SANGER: Inhibition of human NBsusSR cell growth in a cell viability assay.
Description for NCI-H1573: SANGER: Inhibition of human NCI-H1573 cell growth in a cell viability assay.
Description for NCI-H1666: SANGER: Inhibition of human NCI-H1666 cell growth in a cell viability assay.
Description for NCI-H630: SANGER: Inhibition of human NCI-H630 cell growth in a cell viability assay.
Description for OC-314: SANGER: Inhibition of human OC-314 cell growth in a cell viability assay.
Description for RH-18: SANGER: Inhibition of human RH-18 cell growth in a cell viability assay.
Description for SNU-423: SANGER: Inhibition of human SNU-423 cell growth in a cell viability assay.
Description for TI-73: SANGER: Inhibition of human TI-73 cell growth in a cell viability assay.
Description for ZR-75-30: SANGER: Inhibition of human ZR-75-30 cell growth in a cell viability assay.

On to `COc1cc(F)c(F)c(Nc2ccc(I)cc2F)c1NS(=O)(=O)C1(CC(O)CO)CC1` (stereo unspecified), for which the IC50 in the assay on EW-22 is greater than 5 µM; with NBsusSR, greater than 5 µM; with NCI-H1573, greater than 5 µM; in the assay on NCI-H1666, 0.889 µM; in the assay with NCI-H630 it was greater than 5 µM; in the assay with OC-314, greater than 5 µM. The IC50 in the assay on RH-18 is greater than 5 µM; with SNU-423, 4.93 µM; in the assay with A549, 0.116 µM; in the assay with BT-549 it was greater than 5 µM; in the assay with TI-73, 1.83 µM; in the assay on ZR-75-30, greater than 5 µM. This molecule returned a 50% inhibitory concentration (IC50) with CHP-134 greater than 5 µM.
With `O=c1cc(-c2cccc3c2Sc2ccccc2S3)oc(N2CCOCC2)c1` [KU-55933], the IC50 in the assay with EW-22, with NBsusSR, in the assay with NCI-H1573, in the assay on NCI-H1666, with NCI-H630 and in the assay with OC-314 was greater than 10 µM each time. The IC50 in the assay with RH-18, in the assay on SNU-423, in the assay with A549, in the assay on BT-549, in the assay on TI-73 and with ZR-75-30 was greater than 10 µM each time. Besides, the IC50 with CHP-134 was greater than 10 µM.
Take `CCOc1nc(NC(=O)Cc2cc(OC)ccc2OC)cc(N)c1C#N`: the half-inhibitory concentration (IC50) with EW-22, with NBsusSR, with NCI-H1573, in the assay with NCI-H1666, in the assay on NCI-H630 and in the assay on OC-314 was greater than 10 µM each time. For the same molecule, the IC50 in the assay with RH-18, in the assay with SNU-423, in the assay with A549, in the assay on BT-549, with TI-73 and in the assay with ZR-75-30 was greater than 10 µM throughout. The same molecule had a half-maximal inhibitory concentration (IC50) with CHP-134 greater than 10 µM.
With `COc1ccc(C2=N[C@@H](c3ccc(Cl)cc3)[C@@H](c3ccc(Cl)cc3)N2C(=O)N2CCNC(=O)C2)c(OC(C)C)c1` [NUTLIN-3], the IC50 in the assay with EW-22, in the assay with NBsusSR, in the assay with NCI-H1573, in the assay on NCI-H1666, in the assay with NCI-H630 and with OC-314 was greater than 8 µM throughout. The IC50 is 4.28 µM with RH-18; greater than 8 µM in the assay on SNU-423; 3.64 µM with A549; greater than 8 µM in the assay with BT-549; greater than 8 µM in the assay on TI-73; greater than 8 µM in the assay on ZR-75-30. In addition, 2.94 µM corresponded to half-maximal inhibition with CHP-134 (IC50).
On to `C=CCNC1=C2C[C@@H](C)C[C@H](OC)[C@H](O)[C@@H](C)/C=C(\C)[C@H](OC(N)=O)[C@@H](OC)/C=C\C=C(/C)C(=O)NC(=CC1=O)C2=O` [TANESPIMYCIN], for which the IC50 in the assay on EW-22 is greater than 1 µM; with NBsusSR, 0.373 µM; with NCI-H1573, 0.456 µM; in the assay with NCI-H1666 it was 0.128 µM; in the assay with NCI-H630, greater than 1 µM; in the assay on OC-314, 0.167 µM. The IC50 is greater than 1 µM in the assay with RH-18; greater than 1 µM in the assay on SNU-423; less than 0.00391 µM in the assay on A549; 0.118 µM in the assay with BT-549; 0.018 µM with TI-73; greater than 1 µM in the assay with ZR-75-30. This molecule also yielded an IC50 with CHP-134 greater than 1 µM.
Consider `O=C1N=C(NCc2cccs2)S/C1=C\c1ccc2ncccc2c1`, for which the IC50 in the assay on EW-22, in the assay on NBsusSR, with NCI-H1573, with NCI-H1666, in the assay on NCI-H630 and in the assay on OC-314 was greater than 5 µM each time. The half-maximal inhibitory concentration (IC50) in the assay with RH-18, in the assay on SNU-423, in the assay with A549, in the assay on BT-549, in the assay with TI-73 and in the assay on ZR-75-30 was greater than 5 µM throughout. Moreover, the IC50 in the assay with CHP-134 is greater than 5 µM.
As to `COc1ccc(-c2ccc3c(N4CCOC[C@@H]4C)nc(N4CCOC[C@@H]4C)nc3n2)cc1CO` [AZD-8055], the 50% inhibitory concentration (IC50) is 0.684 µM with EW-22; 0.17 µM in the assay on NBsusSR; 0.902 µM with NCI-H1573; greater than 2 µM in the assay on NCI-H1666; greater than 2 µM in the assay on NCI-H630; 1.3 µM in the assay on OC-314. In addition, the 50% inhibitory concentration (IC50) with RH-18 is greater than 2 µM; with SNU-423, 0.814 µM; in the assay on A549, 0.195 µM; with BT-549, greater than 2 µM; in the assay with TI-73, 0.457 µM; with ZR-75-30, greater than 2 µM. Also, half-maximal inhibition in the assay with CHP-134 (IC50) was put at 1.38 µM.
